The values below come from paper PMC7464559, “Synthesis, Optimization, Antifungal Activity, Selectivity, and CYP51 Binding of New 2-Aryl-3-azolyl-1-indolyl-propan-2-ols” (Pharmaceuticals, 2020).

In one data set the test system is C. albicans CA98001. Kind of data set: Anti-Candida in vitro assay (Alamar Blue), C. albicans CA98001. The data set is classed as cell-based. The following applies: MIC = IC80, 24 h at 37 °C, mean of triplicate; for MIC: Candida albicans, CA98001, 24 h. The method, then:
(§1) Test fungal strains were obtained from the American Type Culture Collection (ATCC) or were clinical isolates from the Laboratory of Parasitology and Medical Mycology, Centre Hospitalier Universitaire (CHU) of Nantes. The strains were maintained on Sabouraud agar slants and were subcultured 24 h before used. The activity of the target compounds 8a–g and 11a–m was determined by the method previously described. Briefly, molecules were diluted in RPMI 1640 medium supplemented with 0.165 M morpholinopropanesulphonic acid (Sigma-Aldrich, Saint-Quentin Fallavier, France), 2% glucose, and antibiotics. Candida suspensions were prepared in RPMI 1640 medium (Sigma-Aldrich, Saint-Quentin Fallavier, France) adjusted to give a final concentration of 10^3 cells/mL, and a 96-well microplate (Nunc, D. Dutscher, Brumath, France) was seeded with 100 µL. Each concentration of molecules (100 µL) to be tested was added (in triplicate) and plates were incubated at 37 °C for 24 h. The cellular viability was evaluated on the Fluorolite 1000 (Dynatech, France) with an excitation at 550 nm and an emission at 590 nm after a 4 h incubation with 10 µL of Alamar Blue®. […] MIC was expressed as the mean of the triplicate values. KTC and FLC were used as standards.

Data set [1] relates to ATCC2091 Candida albicans strain. Kind of data set: Anti-Candida in vitro assay, ATCC2091. The following applies: Candida albicans ATCC2091, mean of triplicate; read-out: MIC (IC80) ATCC2091. The data set is classed as cell-based. The method, then: as §1
The subject of data set [2] is CA98002 (Candida albicans). Kind of data set: Anti-Candida in vitro assay, CA98002. In kind it is cell-based. The following applies: Candida albicans CA98002, mean of triplicate; read-out: MIC (IC80) CA98002. The method, then:
as §1

In data set [3] the test system is CA98005 (Candida albicans). Nature of the data set: Anti-Candida in vitro assay, CA98005. In kind it is cell-based. The following applies: Candida albicans CA98005, mean of triplicate; read-out: MIC (IC80) CA98005. The method, then: as §1
Data set [4] concerns ATCC6258 Candida krusei strain. Nature of the data set: Anti-Candida in vitro assay, ATCC6258. In kind it is cell-based. The following applies: Pichia kudriavzevii; Candida krusei ATCC6258, mean of triplicate; read-out: MIC (IC80) ATCC6258. On the procedure:
as §1

A further data set relates to CK98002 (Candida krusei). Nature of the data set: Anti-Candida in vitro assay, CK98002. The following applies: Pichia kudriavzevii; Candida krusei CK98002, mean of triplicate; read-out: MIC (IC80) CK98002. The data set is classed as cell-based. On the procedure: as §1
In a further data set the test system is CK98003 (Candida krusei). Kind of data set: Anti-Candida in vitro assay, CK98003. In kind it is cell-based. The note with it: Pichia kudriavzevii; Candida krusei CK98003, mean of triplicate; read-out: MIC (IC80) CK98003. The method, then: as §1
In data set [5] the test system is CL98001 (Candida lusitaniae). Nature of the data set: Anti-Candida in vitro assay, CL98001. In kind it is cell-based. The following applies: Clavispora lusitaniae; Candida lusitaniae CL98001, mean of triplicate; read-out: MIC (IC80) CL98001. On the procedure:
as §1

Data set [6] has as its system ATCC90018 Candida parapsilosis strain. Nature of the data set: Anti-Candida in vitro assay, ATCC90018. The data set is classed as cell-based. The following applies: Lodderomyces parapsilosis; Candida parapsilosis ATCC90018, mean of triplicate; read-out: MIC (IC80) ATCC90018. The method, then:
as §1

The nature of a further data set: MRC5 toxicity assay. In kind it is cell-based, human. The following applies: human, MRC-5 cells, 96-h incubation, mean of triplicate, read-out: Cytotoxicity IC50 on MRC-5 cells. The method, then: The cytotoxicity of compounds was studied with human fibroblast (MRC5). Cells were grown in RPMI 1640 medium (Sigma-Aldrich, Saint-Quentin Fallavier, France) supplemented with 10% fetal bovin serum (Sigma–Aldrich). Drugs were tested at three concentrations (100, 10, and 1 µM) in triplicate. After a 96-h incubation time, cytotoxicity was measured on the Fluorolite 1000 (Dynatech, Guyancourt, France) after a 4-h incubation time with Uptiblue® (Interchim, Montluçon, France). Inhibitory concentration 50 is a mean of triplicate values. A toxicity index was determined as follow: IC50 against MRC5/Geometric mean of the MICs against Candida spp..

The test system of the next data set is CYP11B1. Further details: method as in PMID 7663533. The note with it: cited from earlier work.
The test system of another data set is CYP11B2. More on the design: method as in PMID 21193036. The note with it: another similar study; cited from earlier work.

≈ marks a conversion by molar mass, not a printed value. Like-named read-outs stand apart in the source and are kept apart here.

As to `CC(=O)N1CCN(c2ccc(OCC3COC(Cn4ccnc4)(c4ccc(Cl)cc4Cl)O3)cc2)CC1` (stereo not drawn) [KTC, ketoconazole, reference compound], the MIC in the data set on C. albicans CA98001 turned out to be 0.005 µg/mL (≈ 0.00941 µM); in data set [1], 0.008 µg/mL (≈ 0.0151 µM); in data set [2] it was 0.009 µg/mL (≈ 0.0169 µM); in data set [3] it was 0.006 µg/mL (≈ 0.0113 µM); in data set [4], 0.079 µg/mL (≈ 0.149 µM); in the data set on CK98002 (Candida krusei), 0.37 µg/mL (≈ 0.696 µM). Besides, the MIC was 0.43 µg/mL (≈ 0.809 µM) in the data set on CK98003 (Candida krusei), 0.007 µg/mL (≈ 0.0132 µM) in [5] and 0.064 µg/mL (≈ 0.12 µM) in data set [6]. Further, the IC50 at 96 h in the data set “MRC5 toxicity assay” is 69.1 µM. In addition, the “CYP11B1 inhibition” value with CYP11B1 is “strong inhibitor”. Moreover, the CYP11B2 inhibition in the data set with CYP11B2 is 100%.
In the case of `OC(Cn1cncn1)(Cn1cncn1)c1ccc(F)cc1F` [FLC, fluconazole, reference compound], the MIC was found to be 0.02 µg/mL (≈ 0.0653 µM) with C. albicans CA98001; 0.07 µg/mL (≈ 0.229 µM) in [1]; 1 µg/mL (≈ 3.27 µM) in data set [2]; 0.57 µg/mL (≈ 1.86 µM) in data set [3]; 7.5 µg/mL (≈ 24.5 µM) in [4]; 2 µg/mL (≈ 6.53 µM) in the data set on CK98002 (Candida krusei). Besides, the MIC in the data set with CK98003 (Candida krusei) was determined as 6.7 µg/mL (≈ 21.9 µM); in data set [5], 0.55 µg/mL (≈ 1.8 µM); in data set [6] it was 0.6 µg/mL (≈ 1.96 µM). Also, the “MIC (= IC80) C. albicans CA98001” value against C. albicans CA98001 worked out at 0.02 µg/mL (≈ 0.0653 µM). The concentration for half-maximal inhibition (IC50) at 96 h in the data set “MRC5 toxicity assay” (MRC-5 human fetal lung fibroblast cells) was over 100 µM. Moreover, the “CYP11B1 inhibition” value in the data set on CYP11B1 is “minor inhibitor”.
